The source of these data is patent US8575114B2, “SGLT-2 inhibitors, methods of making them, and uses thereof” (Albany Molecular Research, Inc., priority 2010, dated 2013).

As a reminder, the IC50 is the midpoint of a concentration-inhibition curve.

Some results are limits rather than exact numbers.

One assay addresses hSGLT-2 (Homo sapiens (Human), UniProt P31639). The assay can be described thus: [14C]AMG uptake inhibition in CHO-K1/hSGLT-2 cells. Type of assay: cell-based. Particulars: 4 μM [14C]AMG, 3-hr incubation at 37° C., read-out: SGLT2, IC50. How it is done: The inhibitory activity of the compounds of this invention against the SGLT-1 or SGLT-2 transporters can be determined by the following assay. […] CHO-K1 cells transfected with pcDNA3.1 (Invitrogen Corp., Carlsbad, Calif.) containing either the full-length hSGLT-1 or hSGLT-2 using Lipofectamine 2000 (Invitrogen Corp., Carlsbad, Calif.) were selected for stable incorporation of the construct by resistance to the selective pressure of Geneticin (450 μg/ml; Invitrogen Corp., Carlsbad, Calif.). Monoclonal cell lines isolated by minimal dilution were screened for uptake activity of radiolabled methyl α-D-glucopyranoside ([^14C]AMG), a non-metabolizable glucose analogue, and a single clone for each transporter was selected for maximal transporter activity to be used for evaluating the inhibitory activity of the compounds of this invention. In brief, 35,000 cells (CHO-K1/hSGLT-1 or CHO-K1/hSGLT-2) were plated per well of a black tissue culture treated 96-well plate in Ham's F12 media supplemented with 10% heat inactivated FBS and allowed to attached overnight at 37° C. and 5% CO2. Compounds were serially diluted 3-fold in DMSO generating a nine (9) data point dose response curve for each compound. Two replicates were performed per determination. […] Following a 3-hr incubation at 37° C. and 5% CO2, the uptake reaction was stopped by washing the cells three (3) times with ice-cold D-PBS and then lysing the cells with 50 μl of Microscint-20. […] Data were fit to an empirical four-parameter model to determine the inhibitor concentration at half-maximal response (IC50). The assay window was established by control wells incubated with [^14C]AMG in the presence or absence of sodium. A dose response curve for phlorizin was generated on every plate as a positive control.

A further assay deals with hSGLT-1 (Homo sapiens (Human), UniProt P13866). Nature of the assay: [14C]AMG uptake inhibition in CHO-K1/hSGLT-1 cells. Type of assay: cell-based. Particulars: 4 μM [14C]AMG, 3-hr incubation at 37° C., read-out: SGLT-1, IC50. The source says:
The inhibitory activity of the compounds of this invention against the SGLT-1 or SGLT-2 transporters can be determined by the following assay. The cDNAs for the human genes of SGLT-1 (SLC5A1—solute carrier family 5 sodium/glucose cotransporter member 1; Accession #NM_000343.1) or SGLT-2 (SLC5A2—member 2; Accession #NM_003041.2) were synthesized (OriGene Technologies, Inc.) and sub-cloned into the mammalian expression vector, pcDNA3.1 (Invitrogen Corp., Carlsbad, Calif.) using standard molecular biology techniques. CHO-K1 cells transfected with pcDNA3.1 (Invitrogen Corp., Carlsbad, Calif.) containing either the full-length hSGLT-1 or hSGLT-2 using Lipofectamine 2000 (Invitrogen Corp., Carlsbad, Calif.) were selected for stable incorporation of the construct by resistance to the selective pressure of Geneticin (450 μg/ml; Invitrogen Corp., Carlsbad, Calif.). Monoclonal cell lines isolated by minimal dilution were screened for uptake activity of radiolabled methyl α-D-glucopyranoside ([^14C]AMG), a non-metabolizable glucose analogue, and a single clone for each transporter was selected for maximal transporter activity to be used for evaluating the inhibitory activity of the compounds of this invention. In brief, 35,000 cells (CHO-K1/hSGLT-1 or CHO-K1/hSGLT-2) were plated per well of a black tissue culture treated 96-well plate in Ham's F12 media supplemented with 10% heat inactivated FBS and allowed to attached overnight at 37° C. and 5% CO2. Compounds were serially diluted 3-fold in DMSO generating a nine (9) data point dose response curve for each compound. Two replicates were performed per determination. The compounds were then diluted into Uptake Buffer (10 mM Hepes, 5 mM Tris, 137 mM NaCl, 5.4 mM KCl, 2.8 mM CaCl2, and 1.2 mM MgSO4, pH 7.4) with a final DMSO concentration of 0.9% (v/v). After the overnight incubation and prior to compound treatment, the cells were washed twice with Sodium Free Buffer in which the sodium chloride was replaced with 137 mM Choline Chloride, and then incubated with 4 μM [^14C]AMG in Uptake Buffer in the presence or absence of diluted compound. Following a 3-hr incubation at 37° C. and 5% CO2, the uptake reaction was stopped by washing the cells three (3) times with ice-cold D-PBS and then lysing the cells with 50 μl of Microscint-20. After 15-min, the amount of radioactivity that was incorporated into the cells was quantified using a Microbeta reader. Data were fit to an empirical four-parameter model to determine the inhibitor concentration at half-maximal response (IC50). The assay window was established by control wells incubated with [^14C]AMG in the presence or absence of sodium. A dose response curve for phlorizin was generated on every plate as a positive control.

Chain of hSGLT-1 (P13866 whole entry): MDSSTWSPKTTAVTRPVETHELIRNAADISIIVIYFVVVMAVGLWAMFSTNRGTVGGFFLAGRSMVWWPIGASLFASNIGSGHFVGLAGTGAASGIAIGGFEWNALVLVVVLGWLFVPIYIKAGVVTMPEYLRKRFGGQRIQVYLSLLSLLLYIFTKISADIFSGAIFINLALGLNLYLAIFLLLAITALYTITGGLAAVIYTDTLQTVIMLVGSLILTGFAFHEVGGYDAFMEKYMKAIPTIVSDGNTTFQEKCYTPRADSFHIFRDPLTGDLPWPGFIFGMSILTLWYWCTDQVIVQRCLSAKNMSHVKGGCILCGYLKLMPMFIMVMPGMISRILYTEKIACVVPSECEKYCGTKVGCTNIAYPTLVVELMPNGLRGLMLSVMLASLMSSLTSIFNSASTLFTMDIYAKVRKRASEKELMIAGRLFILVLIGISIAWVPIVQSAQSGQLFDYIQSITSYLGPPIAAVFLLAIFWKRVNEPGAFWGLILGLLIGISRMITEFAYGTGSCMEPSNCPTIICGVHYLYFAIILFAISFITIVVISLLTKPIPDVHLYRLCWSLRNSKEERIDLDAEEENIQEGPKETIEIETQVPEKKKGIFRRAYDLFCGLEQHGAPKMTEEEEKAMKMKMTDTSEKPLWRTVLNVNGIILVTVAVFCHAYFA
Chain of hSGLT-2 (P31639 whole entry): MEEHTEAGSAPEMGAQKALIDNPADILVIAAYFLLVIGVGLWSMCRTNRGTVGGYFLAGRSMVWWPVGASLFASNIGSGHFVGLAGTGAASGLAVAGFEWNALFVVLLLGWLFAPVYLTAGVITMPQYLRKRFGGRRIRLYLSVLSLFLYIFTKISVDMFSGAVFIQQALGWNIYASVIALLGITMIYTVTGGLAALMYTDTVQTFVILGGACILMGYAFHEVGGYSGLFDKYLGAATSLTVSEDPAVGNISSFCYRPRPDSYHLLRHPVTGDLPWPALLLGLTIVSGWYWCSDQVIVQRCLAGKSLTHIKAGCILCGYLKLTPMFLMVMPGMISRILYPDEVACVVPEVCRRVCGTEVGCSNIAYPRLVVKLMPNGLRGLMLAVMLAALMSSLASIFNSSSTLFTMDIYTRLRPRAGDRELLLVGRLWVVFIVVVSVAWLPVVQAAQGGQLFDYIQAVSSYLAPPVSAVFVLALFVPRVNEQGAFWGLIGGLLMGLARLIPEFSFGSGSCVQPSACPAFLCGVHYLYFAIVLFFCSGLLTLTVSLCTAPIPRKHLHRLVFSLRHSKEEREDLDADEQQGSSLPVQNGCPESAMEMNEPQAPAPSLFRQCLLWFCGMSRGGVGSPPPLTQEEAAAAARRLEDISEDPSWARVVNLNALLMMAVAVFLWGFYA

Regarding `CCN1C(=O)CN(c2ccc(Cc3cc([C@@H]4O[C@H](CO)[C@@H](O)[C@H](O)[C@H]4O)ccc3Cl)cc2)C1=O` [III-2, 1-(4-(2-chloro-5-((2S,3R,4R,5S,6R)-3,4,5-trihydroxy-6-(hydroxymethyl)tetrahydro-2H-pyran-2-yl)benzyl)phenyl)-3-ethylimidazolidine-2,4-dione], the values for the half-inhibitory concentration (IC50) at hSGLT-2 and on hSGLT-1 were 11.4 nM and 17500 nM, respectively.

For `CN1CC(=O)N(c2ccc(Cc3cc([C@@H]4O[C@H](CO)[C@@H](O)[C@H](O)[C@H]4O)ccc3Cl)cc2)C1=O` [III-3, 3-(4-(2-chloro-5-((2S,3R,4R,5S,6R)-3,4,5-trihydroxy-6-(hydroxymethyl)tetrahydro-2H-pyran-2-yl)benzyl)phenyl)-1-methylimidazolidine-2,4-dione], the half-inhibitory concentration (IC50) is 148 nM on hSGLT-2 and 83 nM at hSGLT-1.

For `CC(C)N1C(=O)CN(c2ccc(Cc3cc([C@@H]4O[C@H](CO)[C@@H](O)[C@H](O)[C@H]4O)ccc3Cl)cc2)C1=O` [III-4, 1-(4-(2-chloro-5-((2S,3R,4R,5S,6R)-3,4,5-trihydroxy-6-(hydroxymethyl)tetrahydro-2H-pyran-2-yl)benzyl)phenyl)-3-isopropylimidazolidine-2,4-dione], the IC50 on hSGLT-2 turned out to be 23.6 nM; on hSGLT-1, 35400 nM.

Take `CN1C(=O)N(c2ccc(Cc3cc([C@@H]4O[C@H](CO)[C@@H](O)[C@H](O)[C@H]4O)ccc3Cl)cc2)C(C)(C)C1=O` [III-5, 1-(4-(2-chloro-5-((2S,3R,4R,5S,6R)-3,4,5-trihydroxy-6-(hydroxymethyl)tetrahydro-2H-pyran-2-yl)benzyl)phenyl)-3,5,5-trimethylimidazolidine-2,4-dione]: the 50% inhibitory concentration (IC50) on hSGLT-2 is 489 nM; at hSGLT-1 it was above 90000 nM.
